This is an account of results in patent publication US20250346606A1, “CAMPTOTHECIN COMPOUND, PREPARATION METHOD THEREFOR, AND APPLICATION THEREOF” (SICHUAN KELUN-BIOTECH BIOPHARMACEUTICAL CO., LTD., priority 2021, published 2025).

Assay type in all cases: cell-based, Human
One assay concerns NCI-H358 cells. Kind of assay: Inhibitory effect of compounds on NCI-H358 cell proliferation. The gist of the method:
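Adherent NCI-H358 cells were exposed to compound for 72 h, then viability was read by luminescence (Cell Counting-Lite 2.0). Inhibition calculated from RLU relative to cell-free background and vehicle wells; IC50 from a four-parameter fit.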

The next assay relates to HCC70 cells. Kind of assay: Inhibitory effect of compounds on HCC70 cell proliferation. Particulars: read-out: IC50, inhibitory activity on HCC70 cell proliferation. As to the method:
(1) Cell plating: First, tumor cells HCC70 were cultured in corresponding medium, then digested with trypsin, centrifuged, resuspended, and counted, and the cells were adjusted to an appropriate concentration for plating.
(§1) Co-incubation of the compound of the present disclosure and tumor cells: after the cells adhered to the wall, the medium was removed, and the diluted bioactive molecule (the compound of the present disclosure) was added to the wells of the above plate, and incubated for 72 h.
(§2) In vitro cell viability detection: After the incubation, 50 μL of Cell Counting-Lite™ 2.0 reagent (Vazyme/Novazyme) was added to each well, shaken and mixed well in the dark, reacted for 10 minutes, and then the detection was carried out with a microplate reader (manufacturer: BMG, Model: PHERAStar-FS) for reading. The background RLU was obtained by using cell-free medium (with Cell Counting-Lite™), and the vehicle RLU was obtained by using cell-containing medium (with Cell Counting-Lite™). Cell inhibition rate=1−(sample RLU−background RLU)/(solvent RLU−background RLU)×100%. According to the four-parameter model fitting curve, the half maximal inhibitory concentration (IC50) of the compound was calculated, and the detection results were shown in Table 16.

A further assay concerns NCI-N87 cells. Kind of assay: Inhibitory effect of compounds on NCI-N87 cell proliferation. The essentials:
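Adherent NCI-N87 cells were exposed to compound dilutions for 72 h. Viability measured by Cell Counting-Lite 2.0 luminescence, with inhibition calculated against vehicle and cell-free background RLU. IC50 from four-parameter fit.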

For a further assay, the system named is SKOV-3 cells. Kind of assay: Inhibitory effect of compounds on SKOV-3 cell proliferation. Particulars: read-out: IC50, inhibitory activity on SKOV-3 cell proliferation. As to the method:
(1) Cell plating: First, tumor cells SKOV-3 were cultured in corresponding medium, then digested with trypsin, centrifuged, resuspended, and counted, and the cells were adjusted to an appropriate concentration for plating.
as §1
as §2, with “8.” for “16.”

The next assay concerns HCC1806 cells. Kind of assay: Inhibitory effect of compounds on HCC1806 cell proliferation. As to the method:
(1) Cell plating: First, tumor cells HCC1806 were cultured in corresponding medium, then digested with trypsin, centrifuged, resuspended, and counted, and the cells were adjusted to an appropriate concentration for plating.
as §1
as §2, with “6.” for “16.”

The next assay concerns HT29 cells. Kind of assay: Inhibitory effect of compounds on HT29 cell proliferation. The settings on record: read-out: IC50, inhibitory activity on HT29 cell proliferation. The essentials: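 Adherent HT29 cells incubated with diluted compounds for 72 h; viability read by luminescence (Cell Counting-Lite 2.0, 10 min). Inhibition calculated against cell-free background and vehicle-treated cells; IC50 from four-parameter curve fit.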

Another assay relates to MDA-MB-231 cells. Kind of assay: Inhibitory effect of compounds on MDA-MB-231 cell proliferation. Particulars: read-out: IC50, inhibitory activity on MDA-MB-231 cell proliferation. On the procedure:
(1) Cell plating: First, tumor cells MDA-MB-231 were cultured in corresponding medium, then digested with trypsin, centrifuged, resuspended, and counted, and the cells were adjusted to an appropriate concentration for plating.
as §1
as §2, with “18.” for “16.”

Another assay concerns Hela cells. Kind of assay: Inhibitory effect of compounds on Hela cell proliferation. Particulars: read-out: IC50, inhibitory activity on Hela cell proliferation. On the procedure: (1) Cell plating: First, tumor cells Hela were cultured in corresponding medium, then digested with trypsin, centrifuged, resuspended, and counted, and the cells were adjusted to an appropriate concentration for plating.
as §1
as §2, with “14.” for “16.”

The test system of another assay is A549 cells. Kind of assay: Inhibitory effect of compounds on A549 cell proliferation. Particulars: read-out: IC50, inhibitory activity on A549 cell proliferation. On the procedure: (1) Cell plating: First, tumor cells A549 were cultured in the corresponding medium, then digested with trypsin, centrifuged and resuspended, and counted, and the cells were adjusted to an appropriate concentration for plating.
as §1
as §2, with “activity” for “viability”, “4.” for “16.”

The next assay relates to Jeko-1 cells. Kind of assay: Inhibitory effect of compounds on Jeko-1 cell proliferation. Particulars: Jeko-1 human mantle cell lymphoma cells, 72 h incubation, Cell Counting-Lite 2.0; read-out: IC50, inhibitory activity on Jeko-1 cell proliferation. As to the method:
(1) Cell plating: First, tumor cells Jeko-1 were cultured in corresponding medium, then digested with trypsin, centrifuged, resuspended, and counted, and the cells were adjusted to an appropriate concentration for plating.
as §1
as §2, with “20.” for “16.”

[1] abbreviates: NCI-N87 human gastric cancer cells, 72 h incubation, Cell Counting-Lite 2.0, read-out: IC50, inhibitory activity on NCI-N87 cell proliferation.
[2] abbreviates: HT-29, HT29 human colon cancer cells, 72 h incubation, Cell Counting-Lite 2.0.
The mark [3] stands for this setting: Homo sapiens, NCI-H358, 72 h, read-out: IC50, inhibitory activity on NCI-H358 cell proliferation, NCI-H358 human non-small cell lung cancer cells, 72 h incubation, Cell Counting-Lite 2.0.
Where [4] appears, read: Homo sapiens, HCC1806, 72 h, read-out: IC50, inhibitory activity on HCC1806 cell proliferation, HCC1806 human breast squamous carcinoma cells, 72 h incubation, Cell Counting-Lite 2.0.

The structures appear in SMILES notation. Read-outs that look alike come from different tables or passages of the source.

In the case of `CC[C@@]1(O)C(=O)OCc2c1cc1n(c2=O)Cc2c-1nc1cc(F)c(C)c3c1c2[C@@](C)(N)CC3` (single isomer, unassigned) [Example 12 (5-13-A)], the IC50 is 7.01 nM in the assay with NCI-H358 cells (NCI-H358 human non-small cell lung cancer cells, 72 h incubation, Cell Counting-Lite 2.0, read-out: IC50, inhibitory activity on NCI-H358 cell proliferation); 36.6 nM with HCC70 cells (HCC70 human breast cancer cells, 72 h incubation, Cell Counting-Lite 2.0); 2.33 nM in the assay on NCI-N87 cells (setting [1]); 2.09 nM in the assay on SKOV-3 cells (SK-OV-3, SKOV-3 human ovarian cancer cells, 72 h incubation, Cell Counting-Lite 2.0); 0.96 nM in the assay with HCC1806 cells (HCC1806 human breast squamous carcinoma cells, 72 h incubation, Cell Counting-Lite 2.0, read-out: IC50, inhibitory activity on HCC1806 cell proliferation); 0.88 nM with HT29 cells (setting [2]). In addition, the IC50 with MDA-MB-231 cells (MDA-MB-231 human breast cancer cells, 72 h incubation, Cell Counting-Lite 2.0) is 333 nM.

With `CC[C@@]1(O)C(=O)OCc2c1cc1n(c2=O)Cc2c-1nc1cc(Cl)c(C)c3c1c2[C@@H](NC(=O)CO)CC3` [Example 3 (2-1-A), N-((1S,9S)-5-chloro-9-ethyl-9-hydroxy-4-methyl-10,13-dioxo-2,3,9,10,13,15-hexahydro-1H,12H-benzo[de]pyrano[3′,4′:6,7]indolizino[1,2-b]quinolin-1-yl)-2-hydroxyacetamide], the IC50 with NCI-H358 cells (setting [3]) amounted to 68.6 nM; with SKOV-3 cells (Homo sapiens, SK-OV-3, 72 h) it was 7.12 nM; with HCC1806 cells (setting [4]), 1.43 nM; with HT29 cells (Homo sapiens, HT-29, 72 h), 5.03 nM; in the assay with MDA-MB-231 cells (Homo sapiens, MDA-MB-231, 72 h) it was 300 nM; in the assay on Hela cells (Homo sapiens, HeLa, 72 h), 17 nM.

As to `CC[C@@]1(O)C(=O)OCc2c1cc1n(c2=O)Cc2c-1nc1cc(Cl)c(C)c3c1c2[C@H](NC[C@H](C)O)CC3` [Example 4 (2-7-B), (2S)—N-((1R,9S)-5-chloro-9-ethyl-9-hydroxy-4-methyl-10,13-dioxo-2,3,9,10,13,15-hexahydro-1H,12H-benzo[de]pyrano[3′,4′:6,7]indolizino[1,2-b]quinolin-1-yl)-2-hydroxypropylamine], the IC50 with NCI-H358 cells (setting [3]) amounted to 51.1 nM; in the assay with HCC70 cells (Homo sapiens, HCC70, 72 h) it was 192 nM; in the assay on SKOV-3 cells (Homo sapiens, SK-OV-3, 72 h), 9.47 nM; in the assay with HT29 cells (Homo sapiens, HT-29, 72 h) it was 5.44 nM; in the assay with A549 cells (Homo sapiens, A549, 72 h) it was 16.4 nM.

For the compound `CC[C@@]1(O)C(=O)OCc2c1cc1n(c2=O)Cc2c-1nc1cc(Cl)c(C)c3c1c2[C@@H](NC(=O)[C@H](O)C1CC1)CC3` [Example 5 (2-12-C), (2R)—N-((1S,9S)-5-chloro-9-ethyl-9-hydroxy-4-methyl-10,13-dioxo-2,3,9,10,13,15-hexahydro-1H,12H-benzo[de]pyrano[3′,4′:6,7]indolizino[1,2-b]quinolin-1-yl)-2-cyclopropyl-2-hydroxyacetamide], the IC50 in the assay on NCI-H358 cells (setting [3]) is 23.1 nM; in the assay with HCC70 cells (Homo sapiens, HCC70, 72 h), 211 nM; in the assay with NCI-N87 cells (Homo sapiens, NCI-N87, 72 h, read-out: IC50, inhibitory activity on NCI-N87 cell proliferation, NCI-N87 human gastric cancer cells, 72 h incubation, Cell Counting-Lite 2.0) it was 4.51 nM; in the assay on SKOV-3 cells (Homo sapiens, SK-OV-3, 72 h) it was 6.52 nM; with HCC1806 cells (setting [4]) it was 2.08 nM; in the assay with HT29 cells (Homo sapiens, HT-29, 72 h), 1.49 nM. Also, the IC50 with A549 cells (Homo sapiens, A549, 72 h) amounted to 6.64 nM.

`CC[C@@]1(O)C(=O)OCc2c1cc1n(c2=O)Cc2c-1nc1cc(F)c(C)cc1c2CNC(=O)C1(O)CC1` [Example 11 (4-10), (S)—N-((4-ethyl-8-fluoro-4-hydroxy-9-methyl-3,14-dioxo-3,4,12,14-tetrahydro-1H-pyrano[3′,4′:6,7]indolizino[1,2-b]quinolin-11-yl)methyl)-1-hydroxycyclopropane-carboxamide]: the IC50 in the assay with NCI-N87 cells (setting [1]) was 2.29 nM; in the assay on HT29 cells (setting [2]), 0.52 nM; with A549 cells (A549 human lung cancer cells, 72 h incubation, Cell Counting-Lite 2.0), 68.5 nM; with Hela cells (Hela human cervical cancer cells, 72 h incubation, Cell Counting-Lite 2.0), 3.04 nM; in the assay on Jeko-1 cells, 0.45 nM.
